The results in this text go back to patent US20240358727A1, “MICROSCALE THERMOPHORESIS TO EVALUATE CHANNEL LIPID INTERACTIONS AND METHODS OF TREATING NAV CHANNELS RELATED DISEASES” (Northeastern University, priority 2023, published 2024).

Experiment [1] deals with T1, GFP-PHPLCδ (PIP2 biosensor) (Homo sapiens, UniProt P51178).
T1 construct: the pleckstrin homology domain of phospholipase C delta (GFP-PHPLCδ), a PIP2 biosensor; expressed in transfected cells; host or cells: cell lysate
T1 sequence (P51178 21-130 limits assumed): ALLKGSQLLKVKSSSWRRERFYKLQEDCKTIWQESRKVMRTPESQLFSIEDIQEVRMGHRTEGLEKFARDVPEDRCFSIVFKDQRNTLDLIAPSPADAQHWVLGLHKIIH
The experiment is described as follows: MST binding of diC8-PIP2 to GFP-tagged PHPLCδ1 (positive control). The procedure: (§1) The method utilizes cell lysates obtained from transfected/infected cells that are lysed and incubated with varying concentrations of a water-soluble analogue of PIP2 commercially available as diC8-PI(4,5)P2, in a 384 well plate. Other phosphoinositides such as diC8PI(4)P of diC8PI(5)P can also be utilized. After a brief incubation (10-30 mins) samples are loaded onto capillary chips purchased from the company Nanotemper. Samples are run on the Nanotemper Monolith instrument. This instrument is advertised to detect green fluorescent protein (GFP) tagged proteins, however we have also used TFP (teal FP) tagged proteins. The instrument provides a short infra-red laser pulse which produces a short thermal gradient. Protein that is interacting with the lipid migrates differently through this thermal gradient and its movement is evaluated by the fluorescence of the GFP/TFP tag on the protein. Based on the concentration of the dic8-phosphoinositide, this resolves into a sigmoidal relationship that delivers an apparent affinity (Kd) value. A test ligand can be added to this assay at a known concentration that is at or close to its Kd for the channel. A shift in the channel's affinity for PIP2 in this assay can help indicate whether this test compound is a good drug candidate for further biological experiments.
(§2) Results. […]

The next experiment addresses T2, free GFP (Aequorea victoria, UniProt P42212).
T2 construct: expressed in transfected cells; host or cells: cell lysate
Kind of experiment: MST binding of diC8-PIP2 to free GFP (negative control). As for the experimental part:
as §1, §2

As usually defined, the Kd is the concentration at which binding is half-saturated. High values mean weaker binding, low ones tighter binding.

As to `CCCCCCCC(=O)OC[C@H](COP(=O)(O)O[C@@H]1[C@H](O)[C@H](O)[C@@H](OP(=O)(O)O)[C@H](OP(=O)(O)O)[C@H]1O)OC(=O)CCCCCCC` [diC8-PIP2], the Kd in experiment [1] was 0.13 µM; at free GFP, greater than 800 µM. In addition, the “binding of diC8-PIP2 to free GFP” value at free GFP (MST negative control) is “does not bind”.
